Read-outs that look alike come from different tables or passages of the source. Bridge positions count the residues as written; N and C are the ends. Square brackets hold non-standard residues; d marks the D form. Peptide text beside a SMILES is read from it. R8 = C=CCCCCCC[C@@](C)(N)C(=O)O; R5 = C=CCCC[C@@](C)(N)C(=O)O; S5 = C=CCCC[C@](C)(N)C(=O)O Where only a bound is given, the exact number is not on record here.

The term EC50 denotes the concentration that produces a half-maximal response.

One series relates to trypsin. Nature of the series: Proteolytic stability assay, trypsin. Format: in vitro ADME. Particulars: trypsin (isolated protease), pH 8, b240; read-out: half-life against trypsin (converted). Here is the method: (§1) The compounds according to the invention are tested for their stability in a proteolytic stability assay as described below which is an important parameter to assess for the development of peptide therapeutics. Peptides of the invention 4bb, 4ca, 4a and their unstapled comparative peptide 4, as well as both SAH-RSVFBD isomers were treated with chymotrypsin and trypsin, and analysed by LC/MS to quantify the reaction products over time.
(§2) In vitro proteolytic degradation was measured via LC-MS using an Agilent Infinity 1280 UHPLC system coupled to an Agilent quadruple-time-of-flight (QTOF) 6530 with an Agilent Jet Stream electrospray ionisation (AJS ESI) source (all Agilent Technologies, Waldbronn, Germany). 5 μl of digested sample were injected onto a C18 column (Zorbax Eclipse Plus RRHD, 1.8 μm, 2.1*100 mm, Agilent Technologies, Waldbronn, Germany) equilibrated with solvent A and eluted with a flow rate of 0.4 ml/min over a 5-95% gradient of solvent B in 5 minutes, followed by 1.5 minutes at 95% and 0.5 minutes post-time where solvent A was 95% water, 5% acetonitrile with 0.2% formic acid and solvent B was 5% water, 95% acetonitrile with 0.2% formic acid. The AJS ESI source was operated with a capillary voltage of 4000V and a nozzle voltage of 600V with a drying gas temperature of 325° C. and flow rate of 10 l/min, nebulising gas pressure of 20 psi, and a sheath gas temperature of 300° C. and flow rate of 11l/min. Mass spectra were acquired in the positive ion mode from 100-3200 m/z at a rate of 1 scan per second in extended dynamic range (2 GHz) mode. The fragmentor, skimmer and octopole Radio Frequency voltages were set to 200, 60 and 750 V respectively. Data were acquired and analysed with Agilent MassHunter Workstation (version B.05).
(§3) Peptide digestion was performed as it follows: 10 μl of peptide at 0.29 mM in 50/50 acetonitrile/water were dissolved in 990 μl 100 mM Tris-HCl, pH 8.0 with 10 mM CaCl2. Following measurement of the undigested (to) sample, 10 μl of chymotrypsin at 50 μg/ml in 100 mM Tris-HCl, pH 8.0 with 10 mM CaCl2 were added and the sample was vortexed and placed immediately in the autosampler, set to 25° C. Trypsin digestion was performed as with chymotrypsin except that the buffer was in 50 mM Tris-HCl, pH8. Chymotrypsin and trypsin were purchased from Thermo Fisher Scientific.
(§4) The level of intact peptide was quantified by serial injection over time. Integration of the intact peptide compound chromatogram was performed using the Agilent Molecular Feature Extraction (MFE) algorithm. A plot of the intact peptide MFE peak area over time gave an exponential decay curve, from which the half-life was determined using MatLab […].

Series [1] in a line: CD spectroscopy, percentage of helicity. The conditions noted are these: CD at 222 nm, 10 mM phosphate buffer pH 7.5, 50 μM peptide, 25° C. The series is classed as physicochemical. The method in brief:
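CD spectra were recorded at 25 °C on 50 μM peptide in 10 mM phosphate buffer, pH 7.5, from 180 to 260 nm, averaged over three scans and buffer-subtracted. Percent helicity was calculated from molar ellipticity at 222 nm, normalized to residue number and peptide concentration.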

The target of the next series is T1, chymotrypsin (Bos taurus, UniProt P00766).
T1 construct: purchased Thermo Fisher Scientific
Nature of the series: Proteolytic stability assay, chymotrypsin. The series is classed as in vitro ADME. Particulars: for half-life at 2.9 µM: chymotrypsin (isolated protease). The procedure:
as §1, §2, §3, §4

For the next series, the system named is rHRSV-Luc. Nature of the series: In vivo rHRSV-Luc infection of mice, lung histological analysis. Also noted: species or system BALB/c mice. Particulars: intranasal peptide, day 7 pi. Here is the method: The efficacy of peptides of the invention is tested in the following model of rHRSV infection.
Female BALB/c mice around 8 weeks of age are purchased. Mice are bred in a pathogen-free animal facility. For infection experiments, mice will be housed in cages inside stainless steel isolation cabinets that are ventilated under negative pressure with high-efficiency particulate air-filtered air. Female BALB/c mice (n=5 per group) are anesthetized by a mixture of ketamine and xylazine (1 and 0.2 mg per mouse, respectively) and infected by intranasal inoculation with 50 μl of PBS containing 6.10^4 p.f.u. of rHRSV-Luc (Luc-encoding virus that enables direct visualization of RSV replication in living mice). Peptides of the invention are administered intranasally to the mice infected or uninfected with RSV-Luc, on day 0, 2 and 4 post-infection. Body weight and temperature is monitored at days 3-10. In vivo imaging is performed each two days on anesthetized mice. At day 8, mice are killed and the safety of the treatment is investigated by a complete toxicopathological evaluation of treated mice (histologic analysis of lungs with sections of each lobe, turbinates, heart, spleen, liver, kidneys).
At day 7 pi, a time corresponding to the end of the infection in mice, the animals were sacrificed and the lungs were collected in order to perform a histological analysis. […]

In series [2] the test system is RSV. Particulars: Lambert et al., 1996; read-out: EC50 reported previously; cited from earlier work.
Series [3] can be described thus: Proteolytic stability assay, trypsin. Particulars: trypsin (isolated protease), pH 8; 50 mM Tris-HCl pH8, 25° C., LC-MS; read-out: t1/2 (min) Trypsin. Format: in vitro ADME. The procedure:
as §1, §2, §3, §4

For series [4], the system named is RSV. Particulars: DeVincenzo et al., 2014; cited from earlier work.
Series [5] has as its system recombinant green fluorescent protein (GFP)-expressing RSV virus (strain A2). Nature of the series: HRSV-eGFP inhibition assay (cellular viral fusion assay, A549 cells, flow cytometry). The series is classed as cell-based. The procedure:
The inhibitory activity of the peptides of the invention was assessed in a cellular viral fusion assay as compared to comparative peptides as follows. A549 cells were infected with a recombinant green fluorescent protein (GFP)-expressing RSV virus (strain A2) obtained as described below and in Hallak et al., 2000, Virology, 271:264-275, and the inhibitory activity of the peptides was quantified by flow cytometry.
Following rapid thawing of the frozen eGFP encoding RSV virus at […], the virus was vortexed for 2 min, and pipetted up and down to break aggregates. Serial 4-fold dilutions of inhibitors were prepared in glass tubes and mixed with a volume of virus required to achieve approximately 50% of infection in 200 μl of media containing 2% of FCS. The resulting mixture was added to 24-well plates containing A549 cells. Cells were incubated for 2 hours at 37° C., the media was replaced, and cells were incubated for an additional 24 hours. Cells were treated with 300 μl of trypsin for 10 min at 37° C., and the detached cells were diluted in 1 ml of culture medium. Following centrifugation at 1′700 rpm, the pellet was resuspended in 300 μl of PBS+1% SBF (V/V) and GFP positive cells were counted by FACS analysis.
In general terms: In flow cytometry, cells or beads pass a laser one at a time.

For `CC[C@H](C)[C@@H]1NC(=O)[C@H](Cc2ccccc2)NC(=O)[C@@](C)(NC(=O)[C@H](CC(C)C)NC(=O)[C@H](CO)NC(=O)[C@]2(C)CCCC=CCCC[C@@](C)(NC(=O)[C@H](CCC(=O)O)NC(C)=O)C(=O)N[C@@H]([C@@H](C)CC)C(=O)N[C@@H](CC(N)=O)C(=O)N2)CCCC=CCCC[C@@](C)(C(=O)N[C@@H](CO)C(=O)N[C@@H](CC(=O)O)C(=O)N[C@@H](CCC(=O)O)C(=O)N[C@@H](CC(C)C)C(=O)N[C@@H](CC(C)C)C(=O)N[C@@H](Cc2c[nH]cn2)C(=O)N[C@@H](CC(N)=O)C(=O)N[C@H](C(N)=O)C(C)C)NC(=O)[C@H](CCCNC(=N)N)NC1=O` [Peptide 4ca] (Ac-E[R5]IN[S5]SL[S5]FIR[S5]SDELLHNV-NH2; staple 2-5, 8-12), in the series on trypsin, the half-life at 2.9 µM was 38 h. In series [1], the “% helicity” value was >100%. In addition, the half-life at 2.9 µM at chymotrypsin (pH 8, b240, read-out: half-life against chymotrypsin (converted)) was 10800 min. For the same compound, in the series on rHRSV-Luc, the “histological changes in the lung parenchyma, mock versus peptide inoculated animals (toxicity)” value is on record as “No histological changes were noticed” and the “interstitial pneumonia after infection by RSV, lung histology” value is recorded as “no interstitial pneumonia was observed”.

Regarding “Ac-YDPLVFPSDEFDASISQVNEKINQSLAFIRKSDEL-NH2 (N-terminus and C-terminus assumed) [Peptide T108]”, the concentration for a half-maximal effect (EC50) in the series on RSV [2] was 1480 nM.

For “Ac-EKINQSLAFIRKSDELLHNV-NH2 (N-terminus and C-terminus assumed) [Peptide 4, reference compound]”, the half-life in series [3] amounted to 5 min. Further, the half-life at 2.9 µM at chymotrypsin (100 mM Tris-HCl pH 8.0, 10 mM CaCl2, 25° C., LC-MS, read-out: t1/2 (min) Chymotrypsin) turned out to be 4.5 min. Further, the “time to full degradation” value on chymotrypsin (treated with chymotrypsin and trypsin) is recorded as 10 min.

With `Cc1cn2nc([C@@H]3CCCCN3C(=O)c3cc(Cl)ccc3NS(C)(=O)=O)cc2nc1N1CC[C@H](N)C1` [GS-5806], the half-maximal effective concentration (EC50) in the series with RSV [4] is 0.4 nM.

`CC[C@H](C)[C@H](NC(=O)[C@H](Cc1ccccc1)NC(=O)[C@]1(C)CCCC=CCCC[C@](C)(NC(=O)[C@@H](NC(=O)[C@H](CCCCN)NC(=O)[C@H](CCC(=O)O)NC(C)=O)[C@@H](C)CC)C(=O)N[C@@H](CCC(N)=O)C(=O)N[C@@H](CO)C(=O)N[C@@H](CC(C)C)C(=O)N1)C(=O)N[C@@H](CCCNC(=N)N)C(=O)N[C@]1(C)CCCCCCC=CCCC[C@@](C)(C(=O)N[C@H](C(N)=O)C(C)C)NC(=O)[C@H](Cc2c[nH]cn2)NC(=O)[C@H](CC(C)C)NC(=O)[C@H](CC(C)C)NC(=O)[C@H](CCC(=O)O)NC(=O)[C@H](CC(=O)O)NC(=O)[C@H](CO)NC1=O` [Peptide 4bf, EKI X500 QSL X504 FIR 8508 SDELLH X515V, reference compound] (Ac-EKI[S5]QSL[S5]FIR[R8]SDELLH[S5]V-NH2; staple 4-8, 12-19 (inferred)): the “inhibitory activity in cellular viral fusion assay” value in series [5] is “inactive”. In series [1], the “% helicity” value is >100%.

Values taken from patent publication US11299518B2, “Fusion respiratory syncytial virus inhibitors and use thereof” (priority 2016, dated 2022).
